# Data reported in patent US11299478B2, “2-cyanopyrimidin-4-yl carbamate or urea derivative or salt thereof, and pharmaceutical composition including same” (HANLIM PHARMACEUTICAL CO., LTD., priority 2018, dated 2022).
# How the values were obtained:
# Type in all cases: biochemical
# [1] = biological target: T1, cathepsin K (Homo sapiens, UniProt P43235); assay: Inhibitory activity assay against cathepsin K (enzyme assay); settings: Z-Phe-Arg-AMC 10 μM, enzyme 1 nM, pH 5.5, 30 minutes
# T1 sequence (P43235 115-329): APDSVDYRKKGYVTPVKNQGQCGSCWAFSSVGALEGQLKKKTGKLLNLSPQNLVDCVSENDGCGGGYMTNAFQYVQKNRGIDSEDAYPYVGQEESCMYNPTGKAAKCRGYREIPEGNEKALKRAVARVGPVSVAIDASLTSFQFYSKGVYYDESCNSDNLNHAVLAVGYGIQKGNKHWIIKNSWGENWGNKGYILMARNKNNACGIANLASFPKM
# Experimental: In order to measure the enzyme activity of cathepsin K, a buffer solution (pH 5.5) consisting of 50 mM 2-(N-morpholino)ethanesulfonic acid (MES), 2 mM dithiothreitol (DTT), 2.5 mM ethylenediaminetetraacetic acid (EDTA), 0.01% Triton X-100, and 10% dimethyl sulfoxide (DMSO) was prepared. The substrate, the test material, and the enzyme were mixed in the buffer solution in a predetermined concentration. The Z-Phe-Arg-AMC substrate was used in the final concentration of 10 μM. The test material was used in the final concentrations of 10.0 μM, 3.33 μM, 1.11 μM, 0.370 μM, 0.123 μM, 0.0412 μM, 0.0137 μM, 0.00457 μM, 0.00152 μM, and 0.000508 μM, respectively. The cathepsin K enzyme was used in the final concentration of 1 nM. The final volume of the enzyme reaction solution was 10 μL. After reacting the mixture of substrate, test material, and enzyme for 30 minutes, the enzyme activity was measured with the Synergy Neo (Biotek) microplate reader at an absorption wavelength of 355 nm and an emission wavelength of 460 nm. IC50 values were determined using 4-parameter logistic curve fit program of GraphPad Prism.
# [2] = biological target: cathepsin B (Homo sapiens, UniProt P07858); assay: Inhibitory activity assay against cathepsin B (enzyme assay); settings: Z-Arg-Arg-AMC 40 μM, enzyme 1 nM, pH 6.0, 90 minutes
# Experimental: In order to measure the enzyme activity of cathepsin B, a buffer solution (pH 6.0) consisting of 50 mM MES, 5 mM DTT, 2.5 mM EDTA, 0.005% Polysorbate 20, and 10% DMSO was prepared. The substrate, the test material, and the enzyme were mixed in the buffer solution in a predetermined concentration. The Z-Arg-Arg-AMC substrate was used in the final concentration of 40 μM. The test material was used in the final concentrations of 10.0 μM, 3.33 μM, 1.11 μM, 0.370 μM, 0.123 μM, 0.0412 μM, 0.0137 μM, 0.00457 μM, 0.00152 μM, and 0.000508 μM, respectively. The cathepsin B enzyme was used in the final concentration of 1 nM. The final volume of the enzyme reaction solution was 10 μL. After reacting the mixture of substrate, test material, and enzyme for 90 minutes, the enzyme activity was measured with the EnVision (Perkin Elmer) microplate reader at an absorption wavelength of 340 nm and an emission wavelength of 460 nm. IC50 values were determined using 4-parameter logistic curve fit program of GraphPad Prism.
# [3] = biological target: cathepsin L (Homo sapiens, UniProt P07711); assay: Inhibitory activity assay against cathepsin L (enzyme assay); settings: Z-Phe-Arg-AMC 2 μM, enzyme 3 nM, pH 5.5, 30 minutes
# Experimental: In order to measure the enzyme activity of cathepsin L, a buffer solution (pH 5.5) consisting of 50 mM MES, 2.5 mM DTT, 2.5 mM EDTA, 0.005% Polysorbate 20, and 10% DMSO was prepared. The substrate, the test material, and the enzyme were mixed in the buffer solution in a predetermined concentration. The Z-Phe-Arg-AMC substrate was used in the final concentration of 2 μM. The test material was used in the final concentrations of 10.0 μM, 3.33 μM, 1.11 μM, 0.370 μM, 0.123 μM, 0.0412 μM, 0.0137 μM, 0.00457 μM, 0.00152 μM, and 0.000508 μM, respectively. The cathepsin L enzyme was used in the final concentration of 3 nM. The final volume of the enzyme reaction solution was 10 μL. After reacting the mixture of substrate, test material, and enzyme for 30 minutes, the enzyme activity was measured with the EnVision (Perkin Elmer) microplate reader at an absorption wavelength of 340 nm and an emission wavelength of 460 nm. IC50 values were determined using 4-parameter logistic curve fit program of GraphPad Prism.
# [4] = biological target: cathepsin S (Homo sapiens, UniProt P25774); assay: Inhibitory activity assay against cathepsin S (enzyme assay); settings: Z-Phe-Arg-AMC 70 μM, enzyme 3 nM, pH 6.5, 45 minutes
# Experimental: In order to measure the enzyme activity of cathepsin S, a buffer solution (pH 6.5) consisting of 50 mM MES, 2.5 mM DTT, 1.0 mM EDTA, 0.001% bovine serum albumin (BSA), and 10% DMSO was prepared. The substrate, the test material, and the enzyme were mixed in the buffer solution in a predetermined concentration. The Z-Phe-Arg-AMC substrate was used in the final concentration of 70 μM. The test material was used in the final concentrations of 10.0 μM, 3.33 μM, 1.11 μM, 0.370 μM, 0.123 μM, 0.0412 μM, 0.0137 μM, 0.00457 μM, 0.00152 μM, and 0.000508 μM, respectively. The cathepsin S enzyme was used in the final concentration of 3 nM. The final volume of the enzyme reaction solution was 10 μL.
# After reacting the mixture of substrate, test material, and enzyme for 45 minutes, the enzyme activity was measured with the EnVision (Perkin Elmer) microplate reader at an absorption wavelength of 340 nm and an emission wavelength of 460 nm. IC50 values were determined using 4-parameter logistic curve fit program of GraphPad Prism.
# Sequence of cathepsin S (P25774 115-331, species assumed): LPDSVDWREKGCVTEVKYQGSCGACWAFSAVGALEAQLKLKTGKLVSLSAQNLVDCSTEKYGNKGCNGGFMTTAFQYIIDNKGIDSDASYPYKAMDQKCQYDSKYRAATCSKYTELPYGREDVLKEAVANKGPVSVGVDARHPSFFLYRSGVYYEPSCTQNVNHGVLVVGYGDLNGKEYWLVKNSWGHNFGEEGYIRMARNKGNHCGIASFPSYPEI
# Sequence of cathepsin L (P07711 114-333, species assumed): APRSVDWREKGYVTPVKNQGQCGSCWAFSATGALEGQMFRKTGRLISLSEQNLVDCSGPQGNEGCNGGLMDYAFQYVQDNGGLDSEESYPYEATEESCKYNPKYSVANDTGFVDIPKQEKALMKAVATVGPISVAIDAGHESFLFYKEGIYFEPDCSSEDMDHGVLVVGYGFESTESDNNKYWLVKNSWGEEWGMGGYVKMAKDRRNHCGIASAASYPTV
Structure (SMILES),IC50 [1],IC50 [2],IC50 [3],IC50 [4]
"N#Cc1nccc(C2(NC(=O)OCc3ccc(Br)cc3)CCCC2)n1 [Example 2, 4-bromobenzyl (1-(2-cyanopyrimidin-4-yl)cyclopentyl)carbamate]",21.8 nM,> 10000 nM,> 10000 nM,> 10000 nM
"N#Cc1nccc(C2(NC(=O)OCc3ccccc3)CCCCC2)n1 [Example 10, Benzyl (1-(2-cyanopyrimidin-4-yl)cyclohexyl)carbamate]",5.6 nM,> 10000 nM,1180 nM,7010 nM
"N#Cc1nccc(C2(NC(=O)OCc3ccc(Br)cc3)CCCCC2)n1 [Example 11, 4-bromobenzyl (1-(2-cyanopyrimidin-4-yl)cyclohexyl)carbamate]",18.8 nM,> 10000 nM,> 10000 nM,> 10000 nM
"N#Cc1nccc(C2(NC(=O)OCc3cccc(Br)c3)CCCCC2)n1 [Example 12, 3-bromobenzyl (1-(2-cyanopyrimidin-4-yl)cyclohexyl)carbamate]",168 nM,> 10000 nM,6910 nM,> 10000 nM
"Cc1cccc(COC(=O)NC2(c3ccnc(C#N)n3)CCCCC2)c1 [Example 13, 3-methylbenzyl (1-(2-cyanopyrimidin-4-yl)cyclohexyl)carbamate]",241 nM,> 10000 nM,5080 nM,> 10000 nM
"N#Cc1nccc(C2(NC(=O)OCc3cccc(Cl)c3)CCCCC2)n1 [Example 16, 3-chlorobenzyl (1-(2-cyanopyrimidin-4-yl)cyclohexyl)carbamate]",277 nM,> 10000 nM,4610 nM,> 10000 nM
"N#Cc1nccc(C2(NC(=O)OCc3ccccc3C(F)(F)F)CCCCC2)n1 [Example 20, 2-(trifluoromethyl)benzyl (1-(2-cyanopyrimidin-4-yl)cyclohexyl)carbamate]",32.9 nM,> 10000 nM,2010 nM,9230 nM
"N#Cc1nccc(C2(NC(=O)OCc3ccc(C(F)(F)F)cc3)CCCCC2)n1 [Example 24, 4-(trifluoromethyl)benzyl (1-(2-cyanopyrimidin-4-yl)cyclohexyl)carbamate]",37.9 nM,> 10000 nM,> 10000 nM,> 10000 nM
"N#Cc1nccc(C2(NC(=O)OCc3ccc(F)cc3)CCCCC2)n1 [Example 27, 4-fluorobenzyl (1-(2-cyanopyrimidin-4-yl)cyclohexyl)carbamate]",22.4 nM,> 10000 nM,895 nM,7780 nM

# Further molecules by falling IC50 [1], results first:
IC50 [1],IC50 [2],IC50 [3],IC50 [4],Structure (SMILES)
3700 nM,> 10000 nM,9230 nM,> 10000 nM,"N#Cc1nccc(C2(NC(=O)OCc3cccc(C(F)(F)F)c3)CCCCC2)n1 [Example 14, 3-(trifluoromethyl)benzyl (1-(2-cyanopyrimidin-4-yl)cyclohexyl)carbamate]"
1150 nM,> 10000 nM,> 10000 nM,> 10000 nM,"N#Cc1nccc(C2(NC(=O)OCCc3ccccc3)CCCC2)n1 [Example 4, phenethyl (1-(2-cyanopyrimidin-4-yl)cyclopentyl)carbamate]"
507 nM,> 10000 nM,6390 nM,> 10000 nM,"N#Cc1nccc(C2(NC(=O)OCc3cccc(Br)c3)CCCC2)n1 [Example 3, 3-bromobenzyl (1-(2-cyanopyrimidin-4-yl)cyclopentyl)carbamate]"
83.8 nM,> 10000 nM,2860 nM,> 10000 nM,"COc1ccccc1COC(=O)NC1(c2ccnc(C#N)n2)CCCCC1 [Example 21, 2-methoxybenzyl (1-(2-cyanopyrimidin-4-yl)cyclohexyl)carbamate]"
61.7 nM,> 10000 nM,5950 nM,> 10000 nM,"N#Cc1nccc(C2(NC(=O)OCc3cccc4ccccc34)CCCCC2)n1 [Example 26, naphthalen-1-ylmethyl (1-(2-cyanopyrimidin-4-yl)cyclohexyl)carbamate]"
60.8 nM,> 10000 nM,1740 nM,8320 nM,"N#Cc1nccc(C2(NC(=O)OCc3ccccc3F)CCCCC2)n1 [Example 18, 2-fluorobenzyl (1-(2-cyanopyrimidin-4-yl)cyclohexyl)carbamate]"
58.4 nM,> 10000 nM,1420 nM,> 10000 nM,"Cc1ccccc1COC(=O)NC1(c2ccnc(C#N)n2)CCCCC1 [Example 17, 2-methylbenzyl (1-(2-cyanopyrimidin-4-yl)cyclohexyl)carbamate]"
56.3 nM,> 10000 nM,3550 nM,> 10000 nM,"N#Cc1nccc(C2(NC(=O)OCc3cccc(F)c3)CCCC2)n1 [Example 7, 3-fluorobenzyl (1-(2-cyanopyrimidin-4-yl)cyclopentyl)carbamate]"
45.5 nM,> 10000 nM,1620 nM,8600 nM,"N#Cc1nccc(C2(NC(=O)OCc3cccc(F)c3)CCCCC2)n1 [Example 15, 3-fluorobenzyl (1-(2-cyanopyrimidin-4-yl)cyclohexyl)carbamate]"
41 nM,> 10000 nM,> 10000 nM,> 10000 nM,"COc1ccc(COC(=O)NC2(c3ccnc(C#N)n3)CCCCC2)cc1 [Example 25, 4-methoxybenzyl (1-(2-cyanopyrimidin-4-yl)cyclohexyl)carbamate]"
37.2 nM,> 10000 nM,> 10000 nM,> 10000 nM,"Cc1ccc(COC(=O)NC2(c3ccnc(C#N)n3)CCCCC2)cc1 [Example 22, 4-methylbenzyl (1-(2-cyanopyrimidin-4-yl)cyclohexyl)carbamate]"
19.9 nM,> 10000 nM,> 10000 nM,> 10000 nM,"N#Cc1nccc(C2(NC(=O)OCc3ccc(Cl)cc3)CCCCC2)n1 [Example 23, 4-chlorobenzyl (1-(2-cyanopyrimidin-4-yl)cyclohexyl)carbamate]"
18 nM,> 10000 nM,1060 nM,5850 nM,"N#Cc1nccc(C2(NC(=O)OCc3ccccc3Br)CCCCC2)n1 [Example 19, 2-bromobenzyl (1-(2-cyanopyrimidin-4-yl)cyclohexyl)carbamate]"
